According to patent US20220177891A1, “HIPK INHIBITORS AND METHODS OF USE THEREOF” (Board of Regents, The University of Texas System, priority 2019, published 2022):

Experiments:
HIPK and FAK/pFAK = test: Western blot of HIPK4-overexpressing triple negative breast cancer cells (FIG. 11B); format: cell-based, human
Protocol: (§1) Cells were plated into 6-well plate and grown for 1-2 days until reaching 70-80% confluence. Transfection of cells with HIPK4 cDNA was performed utilizing FuGENE® HD Transfection reagent. An amount of 2.5 μg of DNA and 7.5 μL of FuGENE® HD reagent were separately pipeted into 140 μL opti-MEM medium; incubate the FuGENE® HD transfection reagent/DNA mixture for 10-15 minutes at room temperature. Then the mixture was applied onto cells for 7 h in cell culture incubator. The transfection was stopped by replacing medium with complete medium. After 48 h, cells were harvest for further analysis.
(§2) Briefly, desired cells were harvested and lysed. The protein concentration in the lysates was quantified using the Bradford method with bovine serum albumin as standard. An equal amount of protein of 49 μg was separated by electrophoresis on SDS-polyacrylamide gels and transferred to PVDF membranes. After blocking with 5% nonfat milk, the membranes were incubated with the primary antibodies overnight at the following dilution: HIPK4 (1:500) and β-actin (1:20000). Subsequently, the membranes were incubated with appropriate secondary antibodies. The immunoreactive bands were visualized using enhanced chemiluminescence, as recommended by the manufacturer.

HIPK4 [1] = target: T1, HIPK4 (Homo sapiens, UniProt Q8NE63); test: Western blot of HIPK4 protein level with VIB-MDA compounds (FIG. 9); format: cell-based; set-up: endogenous in cells; context is GI101A and derivative cell lines
T1 sequence (Q8NE63 1-616): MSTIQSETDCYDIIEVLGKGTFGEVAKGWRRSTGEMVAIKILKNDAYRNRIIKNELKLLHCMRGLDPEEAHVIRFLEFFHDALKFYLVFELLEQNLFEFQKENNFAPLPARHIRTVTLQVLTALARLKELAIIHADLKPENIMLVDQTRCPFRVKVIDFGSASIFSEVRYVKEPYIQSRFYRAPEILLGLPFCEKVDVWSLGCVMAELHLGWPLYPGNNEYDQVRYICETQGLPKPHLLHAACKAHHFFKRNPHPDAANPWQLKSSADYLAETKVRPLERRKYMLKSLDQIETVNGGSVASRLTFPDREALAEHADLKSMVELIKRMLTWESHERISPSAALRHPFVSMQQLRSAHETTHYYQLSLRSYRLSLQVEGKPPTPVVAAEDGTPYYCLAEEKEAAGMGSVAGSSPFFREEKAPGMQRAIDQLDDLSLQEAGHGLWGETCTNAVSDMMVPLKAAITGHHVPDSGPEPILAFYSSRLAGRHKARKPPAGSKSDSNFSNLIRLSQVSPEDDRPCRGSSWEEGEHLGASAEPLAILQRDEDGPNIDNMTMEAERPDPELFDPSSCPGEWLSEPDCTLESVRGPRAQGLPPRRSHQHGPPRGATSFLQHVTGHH
Protocol: as §2

HIPK4 [2] = target: T1, HIPK4; test: HIPK4 kinase inhibition by VIB-MDA compounds (FIG. 5, 6); format: biochemical; settings: for potency and specificity for HIPK4: Table 1, FIG. 5
[3] = test system: MDA-MB-231 cells overexpressing HIPK4; test: Transwell migration of HIPK4-overexpressing MDA-MB-231 cells (FIG. 11A); format: cell-based, human; settings: MDA-MB-231 cells overexpressing HIPK4, FIG. 11A
Protocol: The in vitro migration and invasion assay was carried out using transwell chamber. Briefly, 0.2-2.0×10^5 cells/ml cells were suspended in serum-free medium with 5% bovine serum albumin and then were placed in the upper compartment, and medium with 5% fetal bovine serum was added in the lower compartment. Following incubation in cell culture incubator for 6-32 h, non-migratory and noninvasive cells on the upper surface were gently removed by a cotton swab. The cells on the bottom of membrane were stained with cell stain solution at room temperature for 10 min. Images of the invading cells were taken with at least three individual fields per chamber by a fluorescent inverted microscope (Olympus IX81 Motorized Inverted Microscope, Japan). The chambers were transferred to an empty well, and 200 μL of Extraction Solution was added to each well. After incubating 10 minutes on an orbital shaker, 100 μL of solution was transferred from each well to a 96-well microtiter plate for measurement under OD 560 nm in a plate reader.
as §1

Tyro3 = target: T2, Tyro3 (Homo sapiens, UniProt Q06418); test: Tyro3 kinase inhibition (FIG. 5); format: biochemical
T2 sequence (Q06418 41-890): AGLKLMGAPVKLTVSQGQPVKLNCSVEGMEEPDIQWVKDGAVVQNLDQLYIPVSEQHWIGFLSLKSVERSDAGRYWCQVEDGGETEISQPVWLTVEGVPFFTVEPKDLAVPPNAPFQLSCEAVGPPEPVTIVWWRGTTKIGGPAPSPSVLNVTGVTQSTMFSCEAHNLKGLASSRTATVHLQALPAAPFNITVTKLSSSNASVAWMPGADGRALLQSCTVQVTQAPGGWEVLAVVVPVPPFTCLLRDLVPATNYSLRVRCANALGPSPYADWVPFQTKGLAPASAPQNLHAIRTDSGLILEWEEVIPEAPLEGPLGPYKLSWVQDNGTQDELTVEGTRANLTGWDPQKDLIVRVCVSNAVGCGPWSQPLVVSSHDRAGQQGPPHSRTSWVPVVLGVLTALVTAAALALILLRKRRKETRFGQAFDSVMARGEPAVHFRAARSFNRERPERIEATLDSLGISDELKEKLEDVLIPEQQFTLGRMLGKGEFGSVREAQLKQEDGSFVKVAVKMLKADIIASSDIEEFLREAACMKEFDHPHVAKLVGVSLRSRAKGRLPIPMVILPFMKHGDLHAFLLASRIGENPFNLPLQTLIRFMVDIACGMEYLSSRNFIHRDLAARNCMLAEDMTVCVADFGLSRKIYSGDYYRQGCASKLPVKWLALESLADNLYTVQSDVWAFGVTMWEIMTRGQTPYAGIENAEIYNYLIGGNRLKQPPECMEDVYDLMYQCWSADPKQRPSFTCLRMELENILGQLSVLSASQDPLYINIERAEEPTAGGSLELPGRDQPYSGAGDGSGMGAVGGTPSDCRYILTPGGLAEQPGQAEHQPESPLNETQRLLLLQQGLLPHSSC

Transport into cells = format: cell-based
[4] = target: Breast Tumor Kinase (BRK) (Homo sapiens, UniProt Q13882); test: Breast Tumor Kinase inhibition (FIG. 5); format: biochemical
DDR2 (Tyro10) = target: T3, DDR2 (Tyro10) (Homo sapiens, UniProt Q16832); test: DDR2 kinase inhibition by VIB-MDA compounds (FIG. 5, 6B); format: biochemical
T3 sequence (Q16832 22-855): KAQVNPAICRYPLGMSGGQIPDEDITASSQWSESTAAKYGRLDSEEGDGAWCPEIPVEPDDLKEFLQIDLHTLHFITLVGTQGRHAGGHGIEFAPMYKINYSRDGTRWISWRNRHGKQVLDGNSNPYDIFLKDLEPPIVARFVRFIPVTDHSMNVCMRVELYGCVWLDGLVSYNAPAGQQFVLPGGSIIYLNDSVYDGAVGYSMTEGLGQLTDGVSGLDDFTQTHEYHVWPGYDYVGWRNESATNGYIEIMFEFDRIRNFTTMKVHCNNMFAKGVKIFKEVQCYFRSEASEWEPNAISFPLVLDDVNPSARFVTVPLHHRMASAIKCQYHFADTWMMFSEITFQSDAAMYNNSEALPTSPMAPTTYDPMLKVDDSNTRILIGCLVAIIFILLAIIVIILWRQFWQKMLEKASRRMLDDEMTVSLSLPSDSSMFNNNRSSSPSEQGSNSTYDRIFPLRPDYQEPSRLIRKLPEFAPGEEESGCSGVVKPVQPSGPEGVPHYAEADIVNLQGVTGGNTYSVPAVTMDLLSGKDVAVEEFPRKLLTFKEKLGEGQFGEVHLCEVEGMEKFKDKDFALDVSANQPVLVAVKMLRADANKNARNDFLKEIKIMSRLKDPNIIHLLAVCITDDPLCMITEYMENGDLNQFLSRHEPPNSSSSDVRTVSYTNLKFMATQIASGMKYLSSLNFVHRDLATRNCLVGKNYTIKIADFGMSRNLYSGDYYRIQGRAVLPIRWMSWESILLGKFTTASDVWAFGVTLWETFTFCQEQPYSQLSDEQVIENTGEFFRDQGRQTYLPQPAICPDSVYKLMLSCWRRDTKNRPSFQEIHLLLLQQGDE

Chain of Breast Tumor Kinase (BRK) (Q13882 whole entry, species assumed): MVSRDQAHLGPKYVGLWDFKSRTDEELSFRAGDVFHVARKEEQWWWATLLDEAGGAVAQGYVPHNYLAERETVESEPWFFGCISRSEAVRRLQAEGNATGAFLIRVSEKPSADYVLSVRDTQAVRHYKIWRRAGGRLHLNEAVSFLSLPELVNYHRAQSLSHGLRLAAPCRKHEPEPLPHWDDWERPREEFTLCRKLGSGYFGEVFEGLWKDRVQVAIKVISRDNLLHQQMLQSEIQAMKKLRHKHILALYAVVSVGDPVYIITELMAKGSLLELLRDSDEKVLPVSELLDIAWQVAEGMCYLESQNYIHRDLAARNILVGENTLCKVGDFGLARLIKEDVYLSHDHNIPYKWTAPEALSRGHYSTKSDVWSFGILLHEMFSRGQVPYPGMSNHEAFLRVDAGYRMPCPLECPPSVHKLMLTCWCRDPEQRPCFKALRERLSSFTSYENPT

Row | inhibition of HIPK4 expression (HIPK4 [1]) | potency for Tyro3 relative to the other VIB-MDA compounds (Tyro3) | transport into cells (Transport into cells) | potency for BRK relative to the other VIB-MDA compounds [4] | potency for HIPK4 relative to the other VIB-MDA compounds (HIPK4 [2]; FIG. 5) | blocking HIPK4 kinase activity (HIPK4 [2]; FIG. 6) | IC50 (HIPK4 [2]; FIG. 6B) [nM] | specificity for HIPK4 compared to Sorafenib (HIPK4 [2]; kinase inhibition profile, FIG. 6A) | potency for DDR2 relative to the other VIB-MDA compounds (DDR2 (Tyro10); FIG. 5) | IC50 (DDR2 (Tyro10); FIG. 6B, second most inhibited kinase) [nM] | SMILES | expression of HIPK and FAK/pFAK (HIPK and FAK/pFAK) | potency and specificity for HIPK4 (HIPK4 [2]) | migration from HIPK-overexpression [3]
1 | Selective inhibition | – | – | – | – | – | – | – | – | – | CNC(=O)c1cc(Oc2ccc(NC(=O)c3nc(SC)[nH]c3-c3ccc(F)cc3)cc2)ccn1 [VIB-MDA-001] | significantly inhibit | extremely potent and highly specific for HIPK4 | significantly inhibit
2 | Selective inhibition | highest potency | excellent transport into cells | highest potency | highest potency | high efficacy | 15 | greatly increased specificity | highest potency | 100 | CNC(=O)c1cc(Oc2ccc(NC(=O)c3nc(SC)oc3-c3ccc(F)cc3)cc2)ccn1 [VIB-MDA-002] | significantly inhibit | extremely potent and highly specific for HIPK4 | significantly inhibit
3 | Selective inhibition | – | – | – | – | – | – | – | – | – | CNC(=O)c1cc(Oc2ccc(NC(=O)c3nc(S(C)(=O)=O)sc3-c3ccc(F)cc3)cc2)ccn1 [VIB-MDA-003] | significantly inhibit | extremely potent and highly specific for HIPK4 | significantly inhibit
